Results published in EP4813989A1, “CRYSTAL, PHARMACEUTICAL COMPOSITION, PREPARATION METHOD THEREFOR, AND USE THEREOF” (TYK Medicines, Inc., priority 2023, dated 2025).

Assays:
Assay type in all cases: physicochemical
[1] = Accelerated test, related substances by HPLC; conditions: 40°C±2°C, 75%RH±5%RH; for Impurity content RRT0.55 / Impurity content RRT0.66 / Impurity content RRT0.71 / Impurity content RRT0.94 / Impurity content RRT1.02 / Impurity content RRT1.06 / Impurity content RRT1.08 / Impurity content RRT1.15 / Total impurities: open
Method: An investigation method for the accelerated test can be seen in Table 14 below.
Change results of related substances in each crystal form under the accelerated condition (40°C±2°C, 75%RH±5%RH) can be seen in Table 18.
HPLC detection results of related substances under the accelerated condition can be seen as follows: Table 18

[2] = Dynamic vapor sorption (DVS) hygroscopicity
Method: Dynamic vapor sorption (DVS) was used to investigate hygroscopicities of an active pharmaceutical ingredient in different crystal forms.
Determination method: • instrument: dynamic vapor sorption analyzer; temperature: 25°C; protective gas and flow rate: N2, 200 mL/min; • dm/dt: 0.002%/min; RH range: 0%RH-100%RH; cycle: 1 full cycle.

[3] = Flowability test (angle of repose)
Method: A flowability determination method was as follows: an angle of repose was determined by using a device composed of 2 to 3 funnels connected in series in a staggered manner, and drug powder was slowly and uniformly passed through the funnels onto a stationary base with a diameter d, so as to form a symmetric powder pile with a single layer of powder at the bottom. During the formation of the powder pile, a height of the funnels was maintained within 2-4 cm from a top of the powder pile, a height h of the cone was determined, and the angle of repose was calculated as tanθ=h/(d/2).

[4] = High-humidity test, related substances by HPLC; conditions: 90%RH±5%RH; for Impurity content RRT0.55 / Impurity content RRT0.66 / Impurity content RRT0.71 / Impurity content RRT0.94 / Impurity content RRT1.02 / Impurity content RRT1.06 / Impurity content RRT1.08 / Impurity content RRT1.15 / Total impurities: open
Excerpt: An investigation method for the high-humidity test can be seen in Table 12 below.
Results of related substances in each crystal form under the high-humidity condition (90%RH±5%RH) can be seen in Table 16.
HPLC detection results of related substances under the high-humidity condition can be seen as follows: Table 16

[5] = Light exposure test, related substances by HPLC
Excerpt: An investigation method for the light exposure test can be seen in Table 13 below.
Results of related substances in each crystal form under the light exposure condition (4500lx±500lx) can be seen in Table 17.
HPLC detection results of related substances under the light exposure condition can be seen as follows: Table 17

C[C@@H](Nc1ccn2ncc(C3=NOC(C)(C)N3)c2n1)c1cc(F)cc(F)c1F [crystal form E]
0.13%: Increase of total impurities ([5]; 4500 lx±500 lx, 32 days) | Impurity content RRT0.71 ([5]; 4500lx±500lx, open, 32 days)
0.22%: Impurity content RRT0.66 ([4]; 32 days) | Impurity content RRT0.66 ([5]; 4500lx±500lx, open, 5 days) | Impurity content RRT1.02 ([5]; 4500lx±500lx, open, 5 days) | Impurity content RRT0.66 ([5]; 4500lx±500lx, open, 11 days)
0.20%: Impurity content RRT1.02 ([1]; 32 days) | Impurity content RRT1.08 ([1]; 32 days) | Impurity content RRT1.02 ([4]; 11 days) | Impurity content RRT1.08 ([5]; 4500lx±500lx, open, 5 days) | Impurity content RRT1.02 ([5]; 4500lx±500lx, open, 11 days) | Impurity content RRT1.02 ([5]; 4500lx±500lx, open, 32 days)
approximately 4%: DVS weight gain ([2]; humidity increased from 90% to 100%)
0.07%: Impurity content RRT1.06 ([1]; 0 day) | Impurity content RRT1.06 ([4]; 0 day) | Impurity content RRT1.06 ([5]; 4500lx±500lx, open, 0 day)
0.95%: Total impurities ([1]; 32 days)
up to 3%: DVS weight loss ([2]; humidity 20% or less)
0.15%: Impurity content RRT0.71 ([1]; 5 days) | Impurity content RRT0.71 ([1]; 11 days) | Impurity content RRT0.71 ([4]; 5 days) | Impurity content RRT0.71 ([4]; 32 days)
37.9 °: angle of repose [3]
had hygroscopicity: Hygroscopicity (conclusion) [2]
1.02%: Total impurities ([5]; 4500lx±500lx, open, 32 days)
no essential changes: Increase of impurity RRT1.02 content ([4]; 32 days)
0.05%: Impurity content RRT1.06 ([1]; 5 days) | Impurity content RRT1.06 ([1]; 11 days) | Impurity content RRT1.15 ([1]; 32 days) | Increase of total impurities ([4]; 32 days) | Impurity content RRT1.06 ([4]; 5 days) | Impurity content RRT1.06 ([4]; 11 days) | Impurity content RRT0.94 ([4]; 32 days) | Impurity content RRT1.06 ([5]; 4500lx±500lx, open, 5 days)
0.16%: Impurity content RRT0.71 ([1]; 32 days)
0.14%: Impurity content RRT0.71 ([1]; 0 day) | Impurity content RRT0.71 ([4]; 0 day) | Impurity content RRT0.71 ([4]; 11 days) | Impurity content RRT0.71 ([5]; 4500lx±500lx, open, 0 day) | Impurity content RRT0.71 ([5]; 4500lx±500lx, open, 5 days) | Impurity content RRT0.71 ([5]; 4500lx±500lx, open, 11 days)
not increased: Increase of impurity RRT0.71 content ([5]; 4500 lx±500 lx, 32 days) | Increase of impurity RRT1.02 content ([5]; 4500 lx±500 lx, 32 days)
0.08%: Increase of impurity RRT1.08 content ([5]; 4500 lx±500 lx, 32 days) | Impurity content RRT0.94 ([5]; 4500lx±500lx, open, 32 days)
0.18%: Impurity content RRT1.08 ([1]; 5 days) | Impurity content RRT1.08 ([4]; 5 days)
approximately 2%: DVS weight loss ([2]; humidity increased from 0% to 30%) | DVS weight loss ([2]; humidity reduced from 100% to 90%)
0.24%: Impurity content RRT1.08 ([5]; 4500lx±500lx, open, 11 days)
0.17%: Impurity content RRT1.08 ([1]; 0 day) | Impurity content RRT1.08 ([4]; 0 day) | Impurity content RRT1.08 ([5]; 4500lx±500lx, open, 0 day)
0.89%: Total impurities ([1]; 0 day) | Total impurities ([1]; 5 days) | Total impurities ([4]; 0 day) | Total impurities ([4]; 5 days) | Total impurities ([4]; 11 days) | Total impurities ([5]; 4500lx±500lx, open, 0 day)
0.98%: Total impurities ([5]; 4500lx±500lx, open, 11 days)
0.02%: Impurity content RRT0.94 ([1]; 11 days) | Impurity content RRT0.94 ([4]; 11 days) | Impurity content RRT0.94 ([5]; 4500lx±500lx, open, 5 days)
0.03%: Increase of impurity RRT1.08 content ([1]; 32 days) | Impurity content RRT0.94 ([1]; 0 day) | Impurity content RRT1.15 ([1]; 0 day) | Impurity content RRT0.94 ([1]; 5 days) | Impurity content RRT1.15 ([1]; 5 days) | Impurity content RRT1.15 ([1]; 11 days) | Impurity content RRT0.94 ([4]; 0 day) | Impurity content RRT1.15 ([4]; 0 day) | Impurity content RRT0.55 ([4]; 5 days) | Impurity content RRT0.94 ([4]; 5 days) | Impurity content RRT1.15 ([4]; 5 days) | Impurity content RRT1.15 ([4]; 11 days) | Impurity content RRT0.94 ([5]; 4500lx±500lx, open, 0 day) | Impurity content RRT1.15 ([5]; 4500lx±500lx, open, 0 day) | Impurity content RRT0.55 ([5]; 4500lx±500lx, open, 5 days) | Impurity content RRT0.92 ([5]; 4500lx±500lx, open, 11 days) | Impurity content RRT0.94 ([5]; 4500lx±500lx, open, 11 days) | Impurity content RRT1.15 ([5]; 4500lx±500lx, open, 11 days) | Impurity content RRT0.55 ([5]; 4500lx±500lx, open, 32 days)
0.04%: Impurity content RRT0.55 ([1]; 0 day) | Impurity content RRT0.55 ([1]; 5 days) | Impurity content RRT0.55 ([1]; 11 days) | Impurity content RRT0.55 ([1]; 32 days) | Impurity content RRT0.94 ([1]; 32 days) | Impurity content RRT1.06 ([1]; 32 days) | Increase of impurity RRT1.08 content ([4]; 32 days) | Impurity content RRT0.55 ([4]; 0 day) | Impurity content RRT0.55 ([4]; 11 days) | Impurity content RRT0.55 ([4]; 32 days) | Impurity content RRT1.06 ([4]; 32 days) | Impurity content RRT1.15 ([4]; 32 days) | Increase of impurity RRT0.66 content ([5]; 4500 lx±500 lx, 32 days) | Impurity content RRT0.55 ([5]; 4500lx±500lx, open, 0 day) | Impurity content RRT1.15 ([5]; 4500lx±500lx, open, 5 days) | Impurity content RRT0.55 ([5]; 4500lx±500lx, open, 11 days) | Impurity content RRT1.06 ([5]; 4500lx±500lx, open, 11 days) | Impurity content RRT1.06 ([5]; 4500lx±500lx, open, 32 days) | Impurity content RRT1.15 ([5]; 4500lx±500lx, open, 32 days)
0.92%: Total impurities ([5]; 4500lx±500lx, open, 5 days)
0.19%: Impurity content RRT1.02 ([4]; 32 days)
0.21%: Impurity content RRT0.66 ([1]; 0 day) | Impurity content RRT1.02 ([1]; 0 day) | Impurity content RRT0.66 ([1]; 5 days) | Impurity content RRT1.02 ([1]; 5 days) | Impurity content RRT0.66 ([1]; 11 days) | Impurity content RRT1.02 ([1]; 11 days) | Impurity content RRT1.08 ([1]; 11 days) | Impurity content RRT0.66 ([1]; 32 days) | Impurity content RRT0.66 ([4]; 0 day) | Impurity content RRT1.02 ([4]; 0 day) | Impurity content RRT0.66 ([4]; 5 days) | Impurity content RRT1.02 ([4]; 5 days) | Impurity content RRT0.66 ([4]; 11 days) | Impurity content RRT1.08 ([4]; 11 days) | Impurity content RRT1.08 ([4]; 32 days) | Impurity content RRT0.66 ([5]; 4500lx±500lx, open, 0 day) | Impurity content RRT1.02 ([5]; 4500lx±500lx, open, 0 day)
0.94%: Total impurities ([1]; 11 days) | Total impurities ([4]; 32 days)
0.25%: Impurity content RRT0.66 ([5]; 4500lx±500lx, open, 32 days) | Impurity content RRT1.08 ([5]; 4500lx±500lx, open, 32 days)
